Experimental data reported in ChEMBL document CHEMBL4371076 (J Med Chem, 2019).
Active and inactive are the calls of the source. No cut-off for these calls is given here.

Legend:
[1] = Plasma concentration in CD1 mouse model of formalin-induced nociception at 30 mg/kg, po; assay type: ADME, organism-based; settings: read-out: Cp, in vivo
[2] = Fraction unbound in human plasma; assay type: ADME, cell-free
Cytochrome P450 2C9 [3] = target: T1, Cytochrome P450 2C9 (Homo sapiens, UniProt P11712); assay: Time-dependant inhibition of CYP2C9 in human liver microsomes; assay type: ADME
Cytochrome P450 2D6 [4] = target: T2, Cytochrome P450 2D6 (Homo sapiens, UniProt P10635); assay: Time-dependant inhibition of CYP2D6 in human liver microsomes; assay type: ADME
T2 sequence (P10635 whole entry): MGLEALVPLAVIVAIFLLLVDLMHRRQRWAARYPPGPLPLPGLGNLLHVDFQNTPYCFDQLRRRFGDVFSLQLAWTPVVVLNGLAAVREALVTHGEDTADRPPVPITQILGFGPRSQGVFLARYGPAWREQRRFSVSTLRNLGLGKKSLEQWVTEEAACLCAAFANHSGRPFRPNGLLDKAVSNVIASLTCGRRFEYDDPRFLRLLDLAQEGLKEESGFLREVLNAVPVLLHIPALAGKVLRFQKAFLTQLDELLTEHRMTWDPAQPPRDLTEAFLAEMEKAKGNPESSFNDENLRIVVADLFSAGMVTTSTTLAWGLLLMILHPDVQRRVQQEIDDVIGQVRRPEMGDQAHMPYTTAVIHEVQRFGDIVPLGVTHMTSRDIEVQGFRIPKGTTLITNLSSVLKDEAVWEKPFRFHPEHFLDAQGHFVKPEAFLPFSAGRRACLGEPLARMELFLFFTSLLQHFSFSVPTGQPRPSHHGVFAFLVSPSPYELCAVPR

[5] = Metabolic stability in human liver microsomes assessed as parent compound remaining at 0.5 uM after 10 mins; assay type: ADME, Microsome; settings: read-out: Stability
[6] = Permeability from apical to basolateral side in human Caco2 cells; assay type: ADME, cell-based; settings: Caco-2, read-out: permeability
[7] = Unbound plasma concentration in CD1 mouse model of formalin-induced nociception at 30 mg/kg, po; assay type: ADME, organism-based; settings: in vivo
[8] = Permeability from basolateral to apical side in human Caco2 cells; assay type: ADME, cell-based; settings: Caco-2, read-out: permeability
Mus musculus [9] = assay: Analgesic activity in CD1 mouse model of formalin-induced nociception assessed as reduction in formalin-evoked paw flinching/licking response during first phase at 30 mg/kg, po pretreated for 30 mins followed by formalin treatment and measured during first 5 mins post formalin injection; assay type: functional, organism-based
Cytochrome P450 2D6 [10] = target: T2, Cytochrome P450 2D6; assay: Inhibition of CYP2D6 in human liver microsomes; assay type: ADME; settings: human, microsomes
[11] = target: T3, Sodium channel protein type 9 subunit alpha (Mus musculus, UniProt Q62205); assay: Inhibition of recombinant mouse Nav1.7 expressed in HEK293 cells at -70 mV holding potential by patch clamp electrophysiology method; assay type: cell-based
T3 sequence (Q62205 whole entry): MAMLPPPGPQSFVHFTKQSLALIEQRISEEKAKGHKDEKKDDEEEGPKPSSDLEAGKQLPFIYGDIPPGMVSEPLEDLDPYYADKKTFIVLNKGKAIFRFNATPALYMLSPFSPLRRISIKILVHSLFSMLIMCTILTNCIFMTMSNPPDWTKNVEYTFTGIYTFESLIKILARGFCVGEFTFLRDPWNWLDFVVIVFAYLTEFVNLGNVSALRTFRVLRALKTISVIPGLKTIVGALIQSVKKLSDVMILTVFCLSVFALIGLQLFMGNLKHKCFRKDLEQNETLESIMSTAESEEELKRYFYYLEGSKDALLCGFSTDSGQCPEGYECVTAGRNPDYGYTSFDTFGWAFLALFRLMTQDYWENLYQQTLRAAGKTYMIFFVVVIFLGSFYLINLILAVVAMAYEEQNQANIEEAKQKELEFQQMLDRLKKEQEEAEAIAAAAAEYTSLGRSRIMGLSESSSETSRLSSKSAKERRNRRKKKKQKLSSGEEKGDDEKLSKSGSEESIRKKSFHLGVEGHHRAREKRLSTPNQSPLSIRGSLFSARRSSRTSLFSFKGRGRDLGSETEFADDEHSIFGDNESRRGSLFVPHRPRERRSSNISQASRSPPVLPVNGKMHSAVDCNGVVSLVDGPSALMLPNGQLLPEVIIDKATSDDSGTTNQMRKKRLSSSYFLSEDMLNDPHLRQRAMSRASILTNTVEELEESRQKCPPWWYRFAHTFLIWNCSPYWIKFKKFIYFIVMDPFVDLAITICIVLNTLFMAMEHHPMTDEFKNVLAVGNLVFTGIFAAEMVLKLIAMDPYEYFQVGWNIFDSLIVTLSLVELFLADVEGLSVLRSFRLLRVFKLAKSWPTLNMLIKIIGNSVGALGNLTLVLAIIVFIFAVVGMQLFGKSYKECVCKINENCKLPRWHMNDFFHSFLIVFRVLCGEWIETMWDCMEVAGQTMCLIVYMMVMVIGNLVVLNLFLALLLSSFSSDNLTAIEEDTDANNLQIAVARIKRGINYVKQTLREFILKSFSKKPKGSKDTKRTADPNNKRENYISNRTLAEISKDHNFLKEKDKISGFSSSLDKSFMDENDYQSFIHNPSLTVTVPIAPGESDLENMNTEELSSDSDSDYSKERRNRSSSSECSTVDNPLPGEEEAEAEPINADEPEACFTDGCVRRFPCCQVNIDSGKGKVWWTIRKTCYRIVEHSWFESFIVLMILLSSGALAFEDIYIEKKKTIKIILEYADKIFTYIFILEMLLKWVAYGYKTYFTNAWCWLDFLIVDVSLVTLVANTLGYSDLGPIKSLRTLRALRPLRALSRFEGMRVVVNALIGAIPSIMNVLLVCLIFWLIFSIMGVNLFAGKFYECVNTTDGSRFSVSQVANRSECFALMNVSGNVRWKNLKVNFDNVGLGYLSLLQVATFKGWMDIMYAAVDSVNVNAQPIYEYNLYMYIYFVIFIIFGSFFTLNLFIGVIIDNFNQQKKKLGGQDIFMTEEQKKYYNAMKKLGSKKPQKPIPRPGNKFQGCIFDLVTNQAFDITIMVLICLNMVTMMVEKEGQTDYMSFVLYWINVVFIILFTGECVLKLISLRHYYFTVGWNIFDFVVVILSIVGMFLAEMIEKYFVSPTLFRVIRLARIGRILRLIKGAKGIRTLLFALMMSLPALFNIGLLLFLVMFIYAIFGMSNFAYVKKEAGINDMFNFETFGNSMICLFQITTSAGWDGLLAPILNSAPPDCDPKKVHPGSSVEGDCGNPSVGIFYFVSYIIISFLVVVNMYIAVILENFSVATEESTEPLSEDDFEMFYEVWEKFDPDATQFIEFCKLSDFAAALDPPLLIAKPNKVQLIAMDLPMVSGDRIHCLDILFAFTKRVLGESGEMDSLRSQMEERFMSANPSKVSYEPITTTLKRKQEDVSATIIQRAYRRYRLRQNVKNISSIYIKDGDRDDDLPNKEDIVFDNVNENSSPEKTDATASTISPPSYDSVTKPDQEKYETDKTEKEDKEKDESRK

Cytochrome P450 2C19 [12] = target: T4, Cytochrome P450 2C19 (Homo sapiens, UniProt P33261); assay: Inhibition of CYP2C19 in human liver microsomes; assay type: ADME; settings: human, microsomes
T4 sequence (P33261 whole entry): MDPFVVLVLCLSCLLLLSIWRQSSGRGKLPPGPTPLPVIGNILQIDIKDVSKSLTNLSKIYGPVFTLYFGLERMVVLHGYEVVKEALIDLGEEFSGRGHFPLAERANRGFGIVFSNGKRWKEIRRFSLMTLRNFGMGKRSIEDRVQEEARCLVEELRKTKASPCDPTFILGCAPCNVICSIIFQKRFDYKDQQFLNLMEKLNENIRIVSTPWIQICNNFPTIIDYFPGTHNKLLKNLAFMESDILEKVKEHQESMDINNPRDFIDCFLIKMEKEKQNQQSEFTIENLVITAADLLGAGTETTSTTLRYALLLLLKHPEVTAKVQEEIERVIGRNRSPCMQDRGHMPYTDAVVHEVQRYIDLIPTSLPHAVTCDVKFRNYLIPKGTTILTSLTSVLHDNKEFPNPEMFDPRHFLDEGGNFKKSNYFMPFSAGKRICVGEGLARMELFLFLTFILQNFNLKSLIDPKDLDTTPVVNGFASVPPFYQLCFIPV

[13] = Efflux ratio of permeability in human Caco2 cells; assay type: ADME, cell-based; settings: Caco-2
[14] = Metabolic stability in rat liver microsomes assessed as parent compound remaining at 0.5 uM after 10 mins; assay type: ADME, Microsome; settings: read-out: Stability
[15] = Toxicity in CD1 mouse model of formalin-induced nociception assessed as prostration or sedation at 30 mg/kg, po; assay type: organism-based; settings: in vivo
Cytochrome P450 2C9 [16] = target: T1, Cytochrome P450 2C9; assay: Inhibition of CYP2C9 in human liver microsomes; assay type: ADME; settings: human, microsomes
Cytochrome P450 2C8 [17] = target: T5, Cytochrome P450 2C8 (Homo sapiens, UniProt P10632); assay: Inhibition of CYP2C8 in human liver microsomes; assay type: ADME; settings: human, microsomes
T5 sequence (P10632 whole entry): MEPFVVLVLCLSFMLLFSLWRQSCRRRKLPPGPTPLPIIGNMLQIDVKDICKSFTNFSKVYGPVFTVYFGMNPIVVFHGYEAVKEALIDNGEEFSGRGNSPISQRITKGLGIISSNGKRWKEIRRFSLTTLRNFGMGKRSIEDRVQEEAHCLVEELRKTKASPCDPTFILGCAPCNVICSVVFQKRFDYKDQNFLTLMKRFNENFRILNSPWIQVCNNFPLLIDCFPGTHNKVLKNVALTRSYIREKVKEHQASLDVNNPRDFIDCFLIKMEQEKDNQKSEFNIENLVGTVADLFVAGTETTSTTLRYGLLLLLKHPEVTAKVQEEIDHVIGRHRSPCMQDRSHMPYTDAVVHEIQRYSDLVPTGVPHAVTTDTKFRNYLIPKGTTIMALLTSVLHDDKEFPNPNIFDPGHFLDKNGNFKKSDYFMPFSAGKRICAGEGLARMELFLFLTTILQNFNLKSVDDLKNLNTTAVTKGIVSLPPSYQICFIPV

[18] = Fraction unbound in mouse plasma; assay type: ADME, cell-free
Cytochrome P450 2C19 [19] = target: T4, Cytochrome P450 2C19; assay: Time-dependant inhibition of CYP2C19 in human liver microsomes; assay type: ADME
Cytochrome P450 3A4 [20] = target: T6, Cytochrome P450 3A4 (Homo sapiens, UniProt P08684); assay: Time-dependant inhibition of CYP3A4 in human liver microsomes; assay type: ADME
Cytochrome P450 2B6 [21] = target: T7, Cytochrome P450 2B6 (Homo sapiens, UniProt P20813); assay: Time-dependant inhibition of CYP2B6 in human liver microsomes; assay type: ADME
T7 sequence (P20813 whole entry): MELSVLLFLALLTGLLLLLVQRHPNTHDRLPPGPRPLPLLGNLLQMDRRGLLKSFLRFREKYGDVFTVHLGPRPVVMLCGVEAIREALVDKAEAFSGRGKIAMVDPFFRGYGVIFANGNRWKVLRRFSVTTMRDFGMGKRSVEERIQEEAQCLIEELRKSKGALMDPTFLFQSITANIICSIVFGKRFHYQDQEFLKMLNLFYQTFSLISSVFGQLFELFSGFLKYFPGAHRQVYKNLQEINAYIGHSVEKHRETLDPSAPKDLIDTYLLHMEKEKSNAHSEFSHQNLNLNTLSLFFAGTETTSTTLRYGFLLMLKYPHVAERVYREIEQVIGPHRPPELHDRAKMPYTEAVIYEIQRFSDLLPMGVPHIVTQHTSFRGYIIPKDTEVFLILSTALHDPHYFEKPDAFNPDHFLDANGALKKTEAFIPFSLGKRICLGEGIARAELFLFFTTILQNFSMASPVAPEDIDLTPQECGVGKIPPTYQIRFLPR

[22] = target: T8, Sodium channel protein type 9 subunit alpha (Homo sapiens, UniProt Q15858); assay: Inhibition of recombinant human Nav1.7 expressed in HEK293 cells at -70 mV holding potential by patch clamp electrophysiology method; assay type: cell-based
T8 sequence (Q15858 whole entry): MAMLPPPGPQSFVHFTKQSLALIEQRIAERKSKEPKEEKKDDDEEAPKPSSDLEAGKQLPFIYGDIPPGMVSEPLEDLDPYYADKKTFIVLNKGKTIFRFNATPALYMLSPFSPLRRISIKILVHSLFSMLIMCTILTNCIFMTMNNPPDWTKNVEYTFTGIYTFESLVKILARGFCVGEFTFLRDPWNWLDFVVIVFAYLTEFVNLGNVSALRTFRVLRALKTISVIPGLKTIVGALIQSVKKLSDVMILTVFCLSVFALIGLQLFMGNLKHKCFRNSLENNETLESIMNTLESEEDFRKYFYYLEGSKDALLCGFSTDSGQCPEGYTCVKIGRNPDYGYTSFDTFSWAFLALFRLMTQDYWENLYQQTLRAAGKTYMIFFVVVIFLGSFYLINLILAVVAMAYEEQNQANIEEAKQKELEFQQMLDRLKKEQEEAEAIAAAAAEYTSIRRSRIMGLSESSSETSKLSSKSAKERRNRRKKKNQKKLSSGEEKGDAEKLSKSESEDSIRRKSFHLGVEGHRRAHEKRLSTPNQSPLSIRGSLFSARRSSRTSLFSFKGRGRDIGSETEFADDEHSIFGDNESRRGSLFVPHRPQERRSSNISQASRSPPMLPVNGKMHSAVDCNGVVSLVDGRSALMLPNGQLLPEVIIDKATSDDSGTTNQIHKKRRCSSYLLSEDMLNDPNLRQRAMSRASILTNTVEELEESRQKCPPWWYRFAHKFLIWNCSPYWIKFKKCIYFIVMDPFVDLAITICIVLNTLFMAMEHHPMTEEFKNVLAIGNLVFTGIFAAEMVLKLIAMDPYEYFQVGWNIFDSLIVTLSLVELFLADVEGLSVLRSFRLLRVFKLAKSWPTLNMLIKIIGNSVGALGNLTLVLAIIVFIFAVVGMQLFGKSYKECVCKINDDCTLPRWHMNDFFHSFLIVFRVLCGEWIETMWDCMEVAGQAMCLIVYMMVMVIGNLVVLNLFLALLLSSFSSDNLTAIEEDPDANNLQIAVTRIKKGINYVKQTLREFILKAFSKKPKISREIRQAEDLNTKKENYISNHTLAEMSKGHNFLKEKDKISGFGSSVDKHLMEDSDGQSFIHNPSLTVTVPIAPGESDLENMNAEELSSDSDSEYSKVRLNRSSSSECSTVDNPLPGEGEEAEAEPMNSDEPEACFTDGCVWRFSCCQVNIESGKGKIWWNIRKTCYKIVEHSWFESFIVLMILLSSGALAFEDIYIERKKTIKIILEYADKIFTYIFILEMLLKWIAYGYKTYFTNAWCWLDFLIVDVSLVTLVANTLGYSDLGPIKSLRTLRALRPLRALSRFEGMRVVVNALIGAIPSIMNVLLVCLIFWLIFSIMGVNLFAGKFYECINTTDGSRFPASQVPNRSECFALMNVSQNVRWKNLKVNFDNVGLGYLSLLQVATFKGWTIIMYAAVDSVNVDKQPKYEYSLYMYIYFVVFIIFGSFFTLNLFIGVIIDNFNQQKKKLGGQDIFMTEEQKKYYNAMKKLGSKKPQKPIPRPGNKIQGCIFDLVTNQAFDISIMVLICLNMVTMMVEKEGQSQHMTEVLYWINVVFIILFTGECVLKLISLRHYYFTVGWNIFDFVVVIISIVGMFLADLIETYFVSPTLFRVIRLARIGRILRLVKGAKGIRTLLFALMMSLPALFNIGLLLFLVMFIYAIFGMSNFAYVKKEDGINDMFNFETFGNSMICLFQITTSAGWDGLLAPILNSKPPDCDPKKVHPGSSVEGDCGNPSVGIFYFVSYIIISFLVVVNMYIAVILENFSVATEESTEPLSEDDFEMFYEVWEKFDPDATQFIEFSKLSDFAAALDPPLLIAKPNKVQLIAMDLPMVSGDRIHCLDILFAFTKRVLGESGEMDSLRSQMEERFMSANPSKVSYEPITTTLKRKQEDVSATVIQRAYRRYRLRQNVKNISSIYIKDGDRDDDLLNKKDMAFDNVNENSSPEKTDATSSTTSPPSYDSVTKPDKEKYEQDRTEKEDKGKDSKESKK

[23] = target: T3, Sodium channel protein type 9 subunit alpha; assay: Inhibition of Nav1.7 in mouse DRG neurons at -70 mV holding potential by patch clamp electrophysiology method
[24] = Toxicity in CD1 mouse model of formalin-induced nociception assessed as hypothermia at 30 mg/kg, po; assay type: organism-based; settings: in vivo
Cytochrome P450 2C8 [25] = target: T5, Cytochrome P450 2C8; assay: Time-dependant inhibition of CYP2C8 in human liver microsomes; assay type: ADME
[26] = Permeability of the compound at pH 5.5 by PAMPA; assay type: ADME; settings: read-out: permeability
[27] = Permeability of the compound at pH 7.4 by PAMPA; assay type: ADME; settings: read-out: permeability
Cytochrome P450 3A4 [28] = target: T6, Cytochrome P450 3A4; assay: Inhibition of CYP3A4 in human liver microsomes; assay type: ADME; settings: human, microsomes
Mus musculus [29] = assay: Analgesic activity in CD1 mouse model of formalin-induced nociception assessed as reduction in formalin-evoked paw flinching/licking response during second phase at 30 mg/kg, po pretreated for 30 mins followed by formalin treatment and measured during 15 to 45 mins post formalin injection; assay type: functional, organism-based
Cytochrome P450 2B6 [30] = target: T7, Cytochrome P450 2B6; assay: Inhibition of CYP2B6 in human liver microsomes; assay type: ADME; settings: human, microsomes
[31] = Drug uptake in DRG neurons of CD1 mouse model of formalin-induced nociception at 30 mg/kg, po; assay type: ADME, organism-based, DRG neuron; settings: in vivo, read-out: Drug uptake
[32] = Unbound drug level in DRG neurons of CD1 mouse model of formalin-induced nociception at 30 mg/kg, po; assay type: ADME, organism-based, DRG neuron; settings: in vivo
[33] = target: T8, Sodium channel protein type 9 subunit alpha; assay: Inhibition of human Nav1.7 expressed in HEK293 cells after 600 secs at -60 mV holding potential by ion works barracuda population patch clamp method; assay type: cell-based
[34] = Metabolic stability in mouse liver microsomes assessed as parent compound remaining at 0.5 uM after 10 mins; assay type: ADME, Microsome; settings: read-out: Stability
[35] = target: Sodium channel protein type 5 subunit alpha (Homo sapiens, UniProt Q14524); assay: Inhibition of human Nav1.5 expressed in HEK293 cells after 600 secs at -50 mV holding potential by ion works barracuda population patch clamp method; assay type: cell-based

| SMILES | concentration [1] | fraction unbound [2] | TDI (Cytochrome P450 2C9 [3]) | TDI (Cytochrome P450 2D6 [4]) | remaining at 10 min, 0.5 µM [5] | Papp A→B [6] | Cp(f) [7] | Papp B→A [8] | Activity (Mus musculus [9]) | inhibition (INH) (Cytochrome P450 2D6 [10]) | IC50 [11] | inhibition (INH) (Cytochrome P450 2C19 [12]) | efflux ratio [13] | remaining at 10 min, 0.5 µM [14] | Activity [15] | inhibition (INH) (Cytochrome P450 2C9 [16]) | inhibition (INH) (Cytochrome P450 2C8 [17]) | fraction unbound [18] | TDI (Cytochrome P450 2C19 [19]) | TDI (Cytochrome P450 3A4 [20]) | further results |
| --- | --- | --- | --- | --- | --- | --- | --- | --- | --- | --- | --- | --- | --- | --- | --- | --- | --- | --- | --- | --- | --- |
| Cn1cc(-c2ccc(C(F)(F)F)cc2)c2cc(F)c(C(=O)NS(=O)(=O)C3CC3)cc21 | 140 µM | 0.0025 | Not Active | Not Active | 100% | 4.6 ×10⁻⁶ cm/s | 0.49 µM | 8.6 ×10⁻⁶ cm/s | inactive | Not Active | 27 nM | Not Active | 1.9 | 100% | Non-Toxic | Not Active | Not Active | 0.0035 | Not Active | Not Active | TDI (Cytochrome P450 2B6 [21]): Not Active; IC50 [22]: 5 nM; IC50 [23]: 5 nM; Activity [24]: Non-Toxic; TDI (Cytochrome P450 2C8 [25]): Not Active; Papp [26]: 166 ×10⁻⁶ cm/s; Papp [27]: 32.3 ×10⁻⁶ cm/s; inhibition (INH) (Cytochrome P450 3A4 [28]): Not Active; Activity (Mus musculus [29]): inactive; inhibition (INH) (Cytochrome P450 2B6 [30]): Not Active |
| O=S(=O)(Nc1nccs1)c1cc(Cl)c(NCC23CCCN2CCC3)cc1F | 1.4 µM |  |  |  |  |  | 0.34 µM |  | inactive |  |  |  |  |  |  |  |  |  |  |  | concentration [31]: 0.34 µM; Drug uptake(free) [32]: 340 nM |
| CC(C)COc1ncc(-c2cn(C)c3cc(C(=O)NS(=O)(=O)C4CC4)c(F)cc23)cc1Cl | 58 µM | < 0.001 | Not Active | Not Active | 100% | 3.4 ×10⁻⁶ cm/s | 0.116 µM | 10.2 ×10⁻⁶ cm/s | inactive | Not Active | 10 nM | Not Active | 3 | 37% | Non-Toxic | Not Active | Not Active | 0.002 | Not Active | Not Active | concentration [31]: 11 µM; IC50 [33]: 230 nM; remaining at 10 min, 0.5 µM [34]: 100%; IC50 [35]: 5100 nM; TDI (Cytochrome P450 2B6 [21]): Not Active; IC50 [22]: 3.3 nM; Activity [24]: Non-Toxic; TDI (Cytochrome P450 2C8 [25]): Not Active; Papp [26]: 33.5 ×10⁻⁶ cm/s; Papp [27]: 31 ×10⁻⁶ cm/s; inhibition (INH) (Cytochrome P450 3A4 [28]): Not Active; Activity (Mus musculus [29]): inactive; inhibition (INH) (Cytochrome P450 2B6 [30]): Not Active |
| Cn1cc(-c2ccc(C(F)F)cc2)c2cc(F)c(C(=O)NS(=O)(=O)C3CC3)cc21 | 173 µM | 0.003 | Not Active | Not Active | 93% | 8.1 ×10⁻⁶ cm/s | 1.211 µM | 19.5 ×10⁻⁶ cm/s | inactive | Not Active | 231 nM | Not Active | 2.4 | 82% | Non-Toxic | Not Active | Not Active | 0.007 | Not Active | Not Active | remaining at 10 min, 0.5 µM [34]: 86%; TDI (Cytochrome P450 2B6 [21]): Not Active; IC50 [22]: 12 nM; IC50 [23]: 12 nM; Activity [24]: Non-Toxic; TDI (Cytochrome P450 2C8 [25]): Not Active; Papp [26]: 32.5 ×10⁻⁶ cm/s; Papp [27]: 6 ×10⁻⁶ cm/s; inhibition (INH) (Cytochrome P450 3A4 [28]): Not Active; Activity (Mus musculus [29]): inactive; inhibition (INH) (Cytochrome P450 2B6 [30]): Not Active |
| CC(C)COc1ccc(-c2cn(C)c3cc(C(=O)NS(=O)(=O)C4CC4)c(F)cc23)cn1 | 132 µM | 0.024 | Not Active | Not Active | 100% | 12 ×10⁻⁶ cm/s | 0.792 µM | 18.9 ×10⁻⁶ cm/s | inactive | Not Active | 37 nM | Not Active | 1.6 | 78% | Non-Toxic | Not Active | Not Active | 0.006 | Not Active | Not Active | remaining at 10 min, 0.5 µM [34]: 98%; TDI (Cytochrome P450 2B6 [21]): Not Active; IC50 [22]: 19 nM; IC50 [23]: 24 nM; Activity [24]: Non-Toxic; TDI (Cytochrome P450 2C8 [25]): Not Active; Papp [26]: 85.1 ×10⁻⁶ cm/s; Papp [27]: 25.4 ×10⁻⁶ cm/s; inhibition (INH) (Cytochrome P450 3A4 [28]): Not Active; Activity (Mus musculus [29]): inactive; inhibition (INH) (Cytochrome P450 2B6 [30]): Not Active |
